Laboratory results published in article PMC6445138 (2019).

What was measured:
[1] = test system: 5′-Cy5-BsPreQ1-RS (RNA, riboswitch) AGAGGUUCUAGCUACACCCUCUAUAAAAAACUAA; assay: fluorescence intensity titration of labelled RNA; details: 100 mM KCl, 1 mM MgCl2; 50 mM Tris pH 7.5, 10% DMSO, room temperature, RNA 50 nM; apparent
[2] = test system: 5′-AF647-TtPreQ1-RS (RNA, riboswitch) CUGGGUCGCAGUAACCCCAGUUAACAAAACAAG; assay: fluorescence intensity titration of labelled RNA; details: 100 mM KCl, 1 mM MgCl2; 50 mM Tris pH 7.5, 10% DMSO, room temperature, RNA 50 nM; apparent
[3] = test system: ab13_14_15 (RNA, riboswitch, abasic at 13, 14 and 15) CUGGGUCGCAGUNNNCCCAGUUAACAAAACAAG; assay: X-ray crystallography
[4] = test system: BsPreQ1-RS (unlabeled) (RNA, riboswitch) AGAGGUUCUAGCUACACCCUCUAUAAAAAACUAA; assay: inherent ligand fluorescence titration; details: 100 mM KCl, 1 mM MgCl2; 50 mM Tris pH 7.5, 5% DMSO, room temperature, compound 500 nM
[5] = test system: 5′-AF647-BsPreQ1-RS (RNA, riboswitch) GGAGAGGUUCUAGCUACACCCUCUAUAAAAAACUAA; assay: in-line probing; details: 10 mM KCl, 2 mM MgCl2
[6] = test system: ab13_14 (RNA, riboswitch, abasic at 13 and 14) CUGGGUCGCAGUNNCCCCAGUUAACAAAACAAG; assay: X-ray crystallography
[7] = test system: Ss PreQ1 TTA transcript (RNA, riboswitch) AUGUAGUAAGGAGGUUGUAUGGAAGACGAGAGGUUCCUAGCUGAUACCCUCUAUAAAAAACUAGACACAUGUACAACGUCUGUCUUUUUUAUAGAGAUAGGCGUUUUUUUAUGCGCUUAUCUAAACCCUGUACCAGUUAGUUCGACUAUUUUUAAGGAGU; assay: single-round in vitro transcription termination; details: KCl, MgCl2; 20 mM Tris-HCl pH 8.0, 37 °C, E. coli RNA polymerase
[8] = test system: TtPreQ1-RS (unlabeled) (RNA, riboswitch) CUGGGUCGCAGUAACCCCAGUUAACAAAACAAG; assay: inherent ligand fluorescence titration; details: 100 mM KCl, 1 mM MgCl2; 50 mM Tris pH 7.5, 5% DMSO, room temperature, compound 500 nM
[9] = test system: SsPreQ1-RS (unlabeled) (RNA, riboswitch) AGAGGUUCCUAGCUGAUACCCUCUAUAAAAAACUA; assay: WaterLOGSY NMR; details: 100 mM KCl, 1 mM MgCl2
[10] = test system: BsPreQ1-RS (unlabeled) (RNA, riboswitch) AGAGGUUCUAGCUACACCCUCUAUAAAAAACUAA; assay: WaterLOGSY and CPMG NMR; details: 100 mM KCl, 1 mM MgCl2; 50 mM Tris-d11 pH 7.5, 5% DMSO-d6; non-binding control, tested at 375 µM
[11] = test system: TtPreQ1-RS (unlabeled) (RNA, riboswitch) CUGGGUCGCAGUAACCCCAGUUAACAAAACAAG; assay: WaterLOGSY and CPMG NMR; details: 100 mM KCl, 1 mM MgCl2; 50 mM Tris-d11 pH 7.5, 5% DMSO-d6; non-binding control, tested at 375 µM

CN(C)CCOc1ccc2[nH]c3ccccc3c2c1
KD [1]: 100 ± 80 nM
KD [2]: 100 ± 40 nM
binding ([3]; 2.56 Å): yes

NCCOc1ccc2oc3ccccc3c2c1
KD [1]: 534 ± 123 nM
KD [4]: 490 ± 368 nM
binding ([5]; 50 mM Tris pH 8.3, 5% DMSO, room temperature, compound 0.1-300 µM): yes
binding ([6]; 1.8 Å): yes
EC50 [7]: 359000 ± 23000 nM
KD [2]: 457 ± 202 nM
KD [8]: 99 ± 38 nM
binding ([3]; 1.8 Å): yes
binding ([9]; 50 mM Tris-d11 pH 7.5, 5% DMSO-d6, compound 375 µM): yes

CN(C)CCOc1ccc2oc3ccccc3c2c1
KD [1]: 400 ± 100 nM
binding ([6]; 1.94 Å): yes
KD [2]: 600 ± 200 nM

CN[C@H](C(=O)O)C(C)C
binding [10]: no
binding [11]: no
binding ([9]; 50 mM Tris-d11 pH 7.5, 5% DMSO-d6, non-binding control, tested at 375 µM): no

NCc1c[nH]c2nc(N)[nH]c(=O)c12
KD [1]: 4.1 ± 0.6 nM
binding ([5]; 50 mM Tris pH 8.3, room temperature, compound 10 µM): yes
binding ([6]; 1.69 Å): yes
EC50 [7]: 36 ± 5 nM
KD [2]: 2.8 ± 0.4 nM
